The subject of data set [1] is STAT-1. Briefly: STAT-1 phosphorylation in human primary airway epithelial cells (western blot). To be noted: 1μM inhibitor 1h, IFNγ and IFNγ + TNFα 10 min. It is filed as cell-based. The protocol:
(§1) Enhanced chemiluminescence (ECL) reagent and Hybond-ECL nitrocellulose were obtained from GE Healthcare (Little Chalfont, UK). Bis-Tris SDS-PAGE (4–12%) gels and buffers were purchased from Invitrogen Ltd (Paisley, Scotland, UK). Antibodies against phosphorylated and total STAT-1 were purchased from New England Biolabs (Hitchin, UK). Epithelial cells were treated as indicated in six-well plates and lysed in 10 mM Tris-HCl buffer (pH 7.5) containing 150 mM NaCl, 2 mM EDTA, 1 mM sodium orthovanadate, 1% (v/v) Triton X-100, 1 mM phenylmethylsulfonyl fluoride, 10 μg/ml leupeptin, and 10 μg/ml aprotinin) for 30 min on ice. The lysates were then centrifuged at 12,000g for 15 min and protein concentration determined using the BCA protein assay (BioRad, Hemel Hempstead, UK). The proteins within the lysates (20 μg) were resolved with 4–12% Bis-Tris gels and transferred onto nitrocellulose membranes. The membranes were then blocked with 5% (w/v) non-fat milk in TBS containing 0.1% (v/v) Tween 20 for 1 h at room temperature and then incubated with antibodies specific for pSTAT-1 overnight at 4°C. The primary antibody was detected with peroxidase-conjugated secondary antibodies and labelled proteins were detected by ECL.
Cells were harvested and western blots performed for phosphorylated STAT-1 and total STAT-1 and quantified by densitometry. […]
On the technique in general: Immunoblotting shows a protein as a band on a membrane.

In data set [2] the test system is BEAS-2B and human primary airway epithelial cells. Put plainly: Cell viability, MTT assay. It is filed as cell-based. To be noted: for cell viability compared to untreated cells (MTT): at 10^-6M and at all concentrations below this. The protocol:
Cell viability was determined colorimetrically by measuring the reduction of 3-[4,5-dimethylthiazol-2-yl]-2,5-diphenyltetrazolium bromide, MTT, to formazan by mitochondrial dehydrogenases, as described previously.
In order to determine whether any of the inhibitory effects of the JAK inhibitors could be attributed to cell death, MTT assays were performed at the end of every experiment. […] In order to address this issue, the levels of IL-6 released from cells stimulated with IFNγ + TNFα were measured.
For orientation: Tetrazolium assays rely on reduction of a dye to a coloured formazan, in cell work by metabolically active cells.

For data set [3], the system named is STAT-3. Briefly: STAT-3 DNA binding in BEAS-2B cells (TransAM). It is filed as cell-based, human. The note with it: IFNγ + TNFα, inhibitor 10^-6M. Here is the method: STAT phosphorylation, nuclear translocation and DNA binding was determined using TransAM assays (Actif Motif, Rixensart, Belgium). Cells were treated with JAK inhibitors for 30 min prior to stimulation for 1h. Nuclear extracts were prepared using the Actif Motif assay reagents. Briefly, the nuclear extracts (10 μg) were incubated in DNA coated plates for 1h. After washing, antibodies supplied with the TransAM kit that were specific for the active forms of STAT1, STAT3, STAT5A and STAT5B were added to the wells and incubated for a further hour. The plates were washed and a secondary HRP-labelled anti-goat Ig antibody was added and the plates incubated for an hour. After washing, the assay was developed using the TMB substrate provided and the reaction stopped using 2N sulphuric acid. The plates were read at 450nm with a reference filter of 610nm. Data were then normalised to non-stimulated cells and calculated as fold change from baseline.
After 1 h, nuclear extracts of the cells were prepared and TransAM assays for STAT-1 (panel a) and STAT-3 (panel b) were performed. Data are presented as fold change from baseline ± SEM; n = 4.

For data set [4], the system named is BEAS-2B cells. Put plainly: Release of CXCL9, CXCL10 and CXCL11 from BEAS-2B cells (ELISA), inhibitors added 1h before stimulus. It is filed as cell-based, human. To be noted: for IC50: BEAS-2B, pre-treated 1h. The protocol:
BEAS-2B cells (catalogue number CRL-9609) were purchased directly from American Type Culture Collection (Rockville, MD). Keratinocyte serum-free medium (K-SFM), bovine pituitary extract (BPE), and recombinant human epidermal growth factor (EGF) were purchased from Invitrogen (Paisley, UK). BEAS-2B cells were cultured in K-SFM containing 50 μg/ml BPE and 5 ng/ml EGF at 37°C in a humidified atmosphere comprising 5% (v/v) CO2 in air. Cells were cultured as monolayers in growth factor-free media for 24 h prior to stimulation. Human primary airway epithelial cells were cultured as monolayers from bronchial brushings from both male and female subjects (Table 1) and cultured in LHC-9 media (Invitrogen, Paisley, UK) in collagen (1% w/v) coated flasks. Samples were obtained from non-smokers, smokers and patients with COPD. […] The subjects were matched for age and smokers and COPD patients for smoking history (Table 1). All subjects gave informed written consent and the study was approved by the NRES London-Chelsea Research Ethics committee, study number 09/H0801/85.
Cell-free supernatants were removed 20h post-stimulation and assayed for CXCL9, CXCL10 and CXCL11 using Duoset ELISA kits (R & D Systems Europe, Abingdon, UK) according to the manufacturer’s instructions. The detection limits of these assays are 62pg/ml, 31pg/ml, and 7.8 pg/ml respectively.
Data are presented as mean ± SEM of ‘n’ independent determinations. Concentration-response curves were analysed by least-squares, non-linear iterative regression with the ‘Graphpad Prism’ curve fitting program (GraphPad software, San Diego, USA) and IC50 values were subsequently interpolated from curves of best-fit. Statistical differences were determined using the Kruskal–Wallis test followed by Dunn's multiple comparison test or a Wilcoxon signed rank test as appropriate. Values of P<0.05 were considered significant.
Media was harvested and the concentrations of CXCL9 (panels a and d), CXCL10 (panels b and e) and CXCL11 (panels c and f) were measured by ELISA. Data are presented as mean±SEM, n = 7–8.

Data set [5] has as its system TaoK3. Set-up: method as in PMID 18094329. The note with it: inactive or IC50 >30μM; read-out: IC50 against TaoK3; cited from earlier work.
Data set [6] concerns STAT-1. Put plainly: STAT-1 phosphorylation in BEAS-2B cells (western blot). It is filed as cell-based, human. The note with it: for IC50: n = 4. Here is the method: as §1
Having ascertained that JAK inhibitors could suppress the glucocorticosteroid-insensitive release of CXCL9, CXCL10 and CXCL11 from airway epithelial cells, it was important to confirm that this was via inhibition of the JAK-STAT pathway and not an off-target effect of these agents. […] BEAS-2B cells were stimulated with either IFNγ or IFNγ in combination with TNFα and the phosphorylation of STAT-1 was measured by western blotting as reported previously (Fig 4). […] There was no activation of STAT-5A or STAT-5B in this system (data not shown).
Cells were harvested and western blots performed for phosphorylated STAT-1 and total STAT-1 and quantified by densitometry. Data are representative of n = 4 independent experiments (panels a and c) and presented as mean±SEM, n = 4 (panels b and d).

Data set [7] concerns human T lymphocytes (JAK1/3). Also on record: method as in Coe et al., 25. The note with it: ref Coe et al., 25; read-out: IC50 IL-2-induced IFNγ release by human T lymphocytes (JAK1/3); cited from earlier work.

Here are results for two compounds from paper PMC4474874, “Effect of JAK Inhibitors on Release of CXCL9, CXCL10 and CXCL11 from Human Airway Epithelial Cells” (PLoS ONE, 2015).

Like-named read-outs stand apart in the source and are kept apart here. Some results are limits rather than exact numbers.

Regarding `C[C@@H]1CCN(C(=O)N2CCCC2)C[C@@H]1N(C)c1ncnc2[nH]ccc12` [PF956980], the “effect on phosphorylation of STAT-1” value in data set [1] is on record as “suppressed”. Also, in data set [2] (any of the concentrations used in this study), the “effect on cell viability (MTT)” value is “no effect on cell viability”. Also, in data set [2], the “cell viability compared to untreated cells (MTT)” value is “no alterations in cell viability”. Besides, in data set [3], the “effect on STAT-3 binding to DNA” value is reported as “suppressed”. Moreover, the IC50 is 400 ± 100 nM in data set [4] (IFNγ (10ng/ml) 20h, read-out: IC50, release of CXCL9); 600 ± 300 nM in data set [4] (IFNγ (10ng/ml) 20h, read-out: IC50, release of CXCL10); 500 ± 100 nM in data set [4] (IFNγ (10ng/ml) 20h, read-out: IC50, release of CXCL11); 600 ± 100 nM in data set [4] (IFNγ+TNFα (10ng/ml) 20h, read-out: IC50, release of CXCL9); 2200 ± 300 nM in data set [4] (IFNγ+TNFα (10ng/ml) 20h, read-out: IC50, release of CXCL10); over 30000 nM in data set [5]. Besides, the IC50 in data set [6] (IFNγ + TNFα stimulation) turned out to be 840 ± 210 nM; in data set [6] (IFNγ stimulation), 940 ± 160 nM. For the same compound, the “effect on IFNγ-stimulated release of CXCL9, CXCL10 and CXCL11” value in data set [4] (present study, IFNγ-stimulated) is recorded as “completely attenuated”.

As to `CCc1cc(O)ccc1-c1ccc2c(-c3nc4ccccc4[nH]3)n[nH]c2c1` [PF1367550, 4-(3-(1H-benzo[d]imidazol-2-yl)-1H-indazol-6-yl)-3-ethylphenol], in data set [1], the “effect on phosphorylation of STAT-1” value is “suppressed”. The IC50 in data set [7] was 14 nM; in data set [4] (Homo sapiens, IFNγ (10ng/ml) 20h, read-out: IC50, release of CXCL9), 3.6 ± 1.4 nM; in data set [4] (Homo sapiens, IFNγ (10ng/ml) 20h, read-out: IC50, release of CXCL10), 6.1 ± 2 nM; in data set [4] (Homo sapiens, IFNγ (10ng/ml) 20h, read-out: IC50, release of CXCL11), 11.5 ± 2 nM; in data set [4] (Homo sapiens, IFNγ+TNFα (10ng/ml) 20h, read-out: IC50, release of CXCL9), 13.3 ± 2 nM; in data set [4] (Homo sapiens, IFNγ+TNFα (10ng/ml) 20h, read-out: IC50, release of CXCL10), 50.3 ± 8.5 nM. The IC50 was found to be 13.9 ± 2.6 nM in data set [4] (Homo sapiens, IFNγ+TNFα (10ng/ml) 20h, read-out: IC50, release of CXCL11); 32 ± 13 nM in data set [6] (Homo sapiens, IFNγ + TNFα stimulation); 24 ± 6 nM in data set [6] (Homo sapiens, IFNγ stimulation). For the same compound, the “cell viability compared to untreated cells (MTT)” value in data set [2] is “no alterations in cell viability”. Further, the “effect on cell viability (MTT)” value in data set [2] (within 10^3 of the IC50 for this compound) was “no effect on cell viability”. In addition, the “effect on STAT-3 binding to DNA” value in data set [3] was “suppressed”. In data set [4] (BEAS-2B cells, IFNγ and IFNγ+TNFα), the “fold more potent than PF956980, CXCR3 chemokine release” value is ~ 50 fold. For the same compound, in data set [6], the “fold more potent at suppressing STAT-1 phosphorylation compared with PF956980” value was ~ 40 fold.
